# Experimental data taken from patent US6737383B1, “Herbicidal oxadiazolidines” (priority 1999, dated 2004).
# Legend:
# barnyardgrass = test: Test A barnyardgrass; assay type: in vivo, Echinochloa crus-galli; details: 0 to 10 scale where 0 is no effect and 10 is complete control
# Summary of the method: (§1)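 Injury scored visually after about eleven greenhouse days against untreated plants, 0 = no effect, 10 = complete control. Compounds, formulated in surfactant-containing non-phytotoxic solvent, were applied as preemergence soil drench to sandy loam plantings and as postemergence runoff spray at the 1–2 leaf stage.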
# morningglory = test: Test A morningglory; assay type: in vivo, Ipomoea spp.; details: 0 to 10 scale where 0 is no effect and 10 is complete control
# Summary of the method: as §1
# crabgrass = test: Test A crabgrass; assay type: in vivo, Digitaria spp.; details: 0 to 10 scale where 0 is no effect and 10 is complete control
# Summary of the method: as §1
# velvetleaf = test: Test A velvetleaf; assay type: in vivo, Abutilon theophrasti; details: 0 to 10 scale where 0 is no effect and 10 is complete control
# Summary of the method: as §1
# [1] = test system: Pioneer hybrid P33G26 corn; test: Test H corn injury, herbicide and safener mixtures applied to soil; assay type: in vivo; details: safeners for Compound 113
# Method: Mixtures of the herbicide and safeners were applied to pots of a soil mixture previously sown with corn. Pioneer hybrid P33G26 corn was sown in pots containing a sterile mix of 60% sassafras soil and 40% Metro Mix 360® growing medium (pH 6.7, O.M. 2%). Test compounds were dissolved in AGWT (a mixture of 0.25% Tween 20 surfactant, 5% water, 5% glycerin and 89.75% acetone) and sprayed on the soil as pots passed under a stationary 8002E nozzle. Treatments were applied at a 33 gal/acre rate of the AGWT carrier. After treatment, the test pots were placed in the greenhouse and watered. There were two replications for each treatment. Each pot contained eight corn seeds. The pots within each replication were placed in random positions on greenhouse benches. Test plants were fertilized as they were watered with approximately 200 ppm of N (as water soluble 20-20-20 fertilizer) which was metered into the water lines with a fertilizer injector. Daytime temperatures was 23-30° C. and night time temperature was 18-25° C. The test plants were supplemented with artificial lighting. The lights were activated whenever the natural light intensity dropped below the programmed threshold. Day length was maintained for approximately 14 hours.
# The test was evaluated approximately 12 days after treatment. […]
# maize hybrid P33G26 = test: Test G maize injury with safener-treated seed; details: presence of dichlormid; with the exception of Compound 131 at the rate of 560 g/ha
# Method: In soil-containing pots were planted seeds of maize hybrid P33G26 that was previously treated with dichlomid, fenchlorazole-ethyl, and naphthalic anhydride (or no safener). The soil surface was then treated with several rates of Compound 131 or Compound 146 dissolved in a non-phytotoxic solvent using a flat-fan sprayer calibrated to deliver 310 L/ha. Treatmemtes were replicated 4 or 5 times. The treated and untreated plants were allowed to grow in a greenhouse using supplementary artificial lighting with a day-length of 14 hours, with the temperature maintained at about 27° C. during the day and 24° C. during the night. Plants were kept watered with a dilute balanced fertilizer solution.
# At 28 days after application, the treated plants were compared with untreated controls and vissually evaluated.
# Amaranthus rudis (AMATA) = test: Test F preemergence, alone and in mixture with rimsulfuron, AMATA; assay type: in vivo; details: 21 days after treatment
# Method: (§2) Abutilon theophrasti (ABUTH), Chenopodium album (CHEAL), Amaranthus rudis (AMATA), Setaria faberii (SETFA), Panicum dichotomiflorum (PANDI), and Digitaria sanguinalis (DIGSA) were grown from seed in pots of an artificial potting mixture in a greenhouse. Compounds of the present invention were applied at 70 and 105 g ai/ha preemergence. Rimsulfuron was applied at 8.8 and 17.5 g ai/ha. Mixtures of the compounds of the present invention and rimsulfuron were also applied.
# (§3) Following application, the plants were maintained by watering as needed. A fertilizer solution of Peter's 20-20-20 (10 pounds/5 gallons of water) plus Sprint 330, a Iron Chelate micronutrient, (113.5 grams/5 gallons of water) was injected into the water with an Anderson fertilizer injection system to provide approximately 219 ppm of nitrogen with each watering. Artificial lighting was used to supplement natural light to produce a 14 hour photoperiod and: an additional one hour light period was used between 1:00 am to 2:00 am for a night interruption. Greenhouse temperatures were targeted for 27° C. in the day and 21° C. at night. At 21 days after treatment, all plants were evaluated for injury as compared to control plants that were sprayed only with non-phytotoxic solvent.
# (§4) Colby's equation was used to calculate the expected additive herbicidal effect of the mixtures of Compound 21 and the mixture partners listed above. […]
# [2] = test system: Abutilon theophrasti (ABUTH); test: Test F preemergence, alone and in mixture with rimsulfuron, ABUTH; assay type: in vivo; details: 21 days after treatment
# Summary of the method: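 Greenhouse pot plants treated preemergence with compound at 70 and 105 g ai/ha, rimsulfuron at 8.8 and 17.5 g ai/ha, or mixtures; 27° C day/21° C night, 14 hour photoperiod. Injury scored at 21 days after treatment against solvent-sprayed controls; expected additive effect of mixtures calculated by Colby's equation.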
# [3] = test system: Panicum dichotomiflorum (PANDI); test: Test F preemergence, alone and in mixture with rimsulfuron, PANDI; assay type: in vivo; details: 21 days after treatment
# Method: as §2, §3, §4
# [4] = test system: Digitaria sanguinalis (DIGSA); test: Test F preemergence, alone and in mixture with rimsulfuron, DIGSA; assay type: in vivo; details: 21 days after treatment
# Method: as §2, §3, §4
# Setaria faberii (SETFA) = test: Test F preemergence, alone and in mixture with rimsulfuron, SETFA; assay type: in vivo; details: 21 days after treatment
# Method: as §2, §3, §4
# [5] = test system: Chenopodium album (CHEAL); test: Test F preemergence, alone and in mixture with rimsulfuron, CHEAL; assay type: in vivo; details: 21 days after treatment
# Method: as §2, §3, §4
# [6] = Alone: Cmpd. 0, Rimsulfuron rate 8.8
# [7] = Alone: Cmpd. 0, Rimsulfuron rate 17.5
compound,measurement,setting,value
CC(C)N(C(=O)n1oc(=O)[nH]c1=O)c1ccccc1 [Compound 386],"Plant response rating, Barnyardgrass","barnyardgrass; Postemergence, Rate 1000 g/ha",0
same,"Plant response rating, Barnyardgrass","barnyardgrass; Pre-emergence, Rate 2000 g/ha",0
same,"Plant response rating, Morningglory","morningglory; Postemergence, Rate 1000 g/ha",0
same,"Plant response rating, Morningglory","morningglory; Pre-emergence, Rate 2000 g/ha",0
same,"Plant response rating, Crabgrass","crabgrass; Postemergence, Rate 1000 g/ha",0
same,"Plant response rating, Crabgrass","crabgrass; Pre-emergence, Rate 2000 g/ha",0
same,melting point,,116 to 117 °C
same,"Plant response rating, Velvetleaf","velvetleaf; Postemergence, Rate 1000 g/ha",0
same,"Plant response rating, Velvetleaf","velvetleaf; Pre-emergence, Rate 2000 g/ha",0
"C=CCN(CC=C)C(=O)C(Cl)Cl [dichlormid, reference compound]",Safening of Compound 113 on corn,[1],functioned very effectively as safeners
same,Safening effect on maize injury,maize hybrid P33G26,reduced the injury to an insignificant level
CCS(=O)(=O)c1cccnc1S(=O)(=O)NC(=O)Nc1nc(OC)cc(OC)n1 [rimsulfuron],AMATA Observed,Amaranthus rudis (AMATA); [6],10%
same,AMATA Observed,Amaranthus rudis (AMATA); [7],15%
same,ABUTH Observed,[2]; [6],20%
same,ABUTH Observed,[2]; [7],40%
same,PANDI Observed,[3]; [6],75%
same,PANDI Observed,[3]; [7],95%
same,DIGSA Observed,[4]; [6],95%
same,DIGSA Observed,[4]; [7],100%
same,SETFA Observed,Setaria faberii (SETFA); [6],75%
same,SETFA Observed,Setaria faberii (SETFA); [7],90%
same,CHEAL Observed,[5]; [6],25%
same,CHEAL Observed,[5]; [7],60%
